One test deals with HCV replication (HCV replicon RNA in Huh7/Clone A cells). Kind of test: HCV Replicon Assay. It is filed as cell-based. To be noted: Hepatitis C virus, Huh-7, 48 h, read-out: IC50 for inhibition of HCV replication. From the text: The HCV replicon assay is a cell-culture system that mimics in vivo HCV replication and provides a system to study HCV replication in vitro. It was created by transfecting cloned viral RNA derived from a consensus HCV genomic sequence into human Huh7 hepatoma cells that are semi-permissive for viral RNA production (Lohmann V., Korner F., Koch J.-O., Herian U., Theilmann L. and Bartenschlager R. (1999). Replication of subgenomic Hepatitis C virus RNAs in a hepatoma cell line. Science 285, 110-113 and Blight K. J., Kolykhalov A. A. and Rice C. M. (2000). Efficient initiation of HCV RNA Replication in cell culture. Science 290, […]). These transfected cell lines contain a subgenomic HCV RNA genome that includes (1) the HCV 5′NTR fused to 12 amino acids of the capsid coding region, (2) the neomycin phosphotransferase gene (Neo) as a selectable marker, (3) the internal ribosome entry site (IRES) from encephalomyocarditis virus (EMCV) that directs translation of HCV non-structural proteins (variously NS2 or NS3 to NS5B), and (4) the 3′ NTR. Replicon-containing cells autonomously and persistently replicate HCV RNA that can be measured quantitatively by real-time qPCR. Therefore, the replicon system facilitates quantitative assessment of anti-viral activity by monitoring changes in HCV RNA replication in a cell-based assay.
HCV replicon-containing cells (Huh7/Clone A) were routinely maintained in Clone A growth medium (DMEM medium [Invitrogen], supplemented with 10% Fetal Bovine Serum, 1% Non Essential Amino Acids and 1 g/L G418). Test compounds were dissolved in dimethyl sulfoxide (DMSO) to make 200× stock solutions for all doses prior to treatment.
For the HCV replicon assay, Huh7/Clone A cells were trypsinized from culture flasks, seeded in 1 ml of Clone A growth medium without G418 at 4×10^4 cells per well in 24-well plates and incubated at 37° C. in a humidified CO2 (5%) incubator overnight. Following overnight incubation, compound solutions were added into wells in the same volume (5 μl of 200× compound stock per well) to give a final DMSO concentration of 0.5%. Three wells on each plate supplemented with 5 μl of DMSO served as untreated controls. For IC50 determinations, compounds were tested at 7 serial dilutions in triplicates from the starting stock solutions. The plates were incubated at 37° C. for 48 hours. After incubation, cells were harvested, transferred to 96-well plates, and subjected to total RNA extraction using the RNA Isolation Kit (RNeasy 96, Qiagen) according to the protocol described by the manufacture's RNeasy 96 Handbook (Qiagen).
Total RNA eluted in 130 μl of RNase-free dH2O was quantitated by the RiboGreen Assay according to the supplier's protocol (Molecular Probe). Briefly, 5 μl of RNA samples were aliquoted in duplicate to a 96-well black microplate and a 96-well TaqMan Optical plate. RNA samples in the black microplate were mixed with 95 μl of diluted RiboGreen:reagent (1:250 dilution in TE buffer) and sample fluorescence was measured using a fluorescence microplate reader at standard fluorescein wavelengths (excitation ˜480 nm, emission ˜520 nm). Ribosomal RNA (Molecular Probe) was used as standard.
TaqMan quantitative PCR (RT-qPCR) was used to quantitate the amount of HCV replicon RNA in each sample. The RT-qPCR reactions were performed in 25 μl on an ABI PRISM 7900 HT Sequence Detection System (Applied Biosystems). The reaction mixture contained 5 μl of total RNA (10-100 ng), 1×TaqMan Buffer A (Applied Biosystems), 5.5 mM MgCl2, 1.2 mM dNTP mix, 0.625 U of AmpliTaq Gold (Applied Biosystems), 5 U of MMLV reverse transcriptase (Promega), 5 U of rRNasin (Promega), 300 nM each of the forward and reverse primers, and 100 nM TaqMan MGB probe. […]
The IC50 is the point on the concentration scale where inhibition reaches its midpoint. As for `CC(C)(C)OC(=O)N[C@H](C(=O)N1C[C@H](Oc2ccc(Cl)cn2)C[C@H]1C(=O)N[C@@H](CC1CCC1)C(=O)C(=O)NC1CC1)C(C)(C)C` [Compound 7, {1S-[4R-(5-chloropyridin-2-yloxy)-2S-(1S-cyclobutylmethyl-2-cyclopropylcarbamoyl-2-oxo-ethylcarbamoyl)-pyrrolidine-1-carbonyl]-2,2-dimethyl-propyl}-carbamic acid tert-butyl ester], the IC50 is less than 50 µM.

For the compound `CC(C)(C)NC(=O)N[C@H](C(=O)N1CC(Oc2ccc(Cl)cn2)C[C@H]1C(=O)N[C@@H](CC1CCC1)C(=O)C(=O)NC1CC1)C(C)(C)C` (stereo partly drawn) [Compound 3, 1-[2S-(3-tert-butylureido)-3,3-dimethylbutyryl]-4R-(5-chloropyridin-2-yloxy)-pyrrolidine-2S-carboxylic acid (1S-cyclobutylmethyl-2-cyclopropylcarbamoyl-2-oxoethyl)-amide], the IC50 was less than 50 µM.

With `CCC[C@H](NC(=O)[C@@H]1C[C@@H](Oc2ccc(Cl)cn2)CN1C(=O)[C@@H](NC(=O)OC(C)(C)C)C(C)(C)C)C(=O)C(=O)NC1CC1` [Compound 6, {1S-[4R-(5-chloropyridin-2-yloxy)-2S-(1S-cyclopropylaminooxalylbutyl-carbamoyl)-pyrrolidine-1-carbonyl]-2,2-dimethyl-propyl}-carbamic acid tent-butyl ester], the IC50 was less than 50 µM.

Still in this test, the particulars now being: Hepatitis C virus, Huh-7; HCV replicon-containing Huh7/Clone A cells, 48 hours incubation, replicon RNA by RT-qPCR normalized to total RNA; read-out: IC50 for inhibition of HCV replication.
Regarding `CCCC[C@H](NC(=O)[C@@H]1CC(Oc2nccc3cc(OC)ccc23)CN1C(=O)[C@@H](NC(=O)NC(C)(C)C)C(C)(C)C)C(=O)C(=O)NC1CC1` (stereo partly drawn) [Compound 13, 1-[2S-(3-tert-Butyl-ureido)-3,3-dimethyl-butyryl]-4R-(6-methoxy-isoquinolin-1-yloxy)-pyrrolidine-2S-carboxylic acid (1S-cyclopropylaminooxalyl-pentyl)-amide], the IC50 was less than 10 µM.

On to `CCOc1ccc2c(OC3C[C@@H](C(=O)N[C@@H](CC4CC4)C(=O)C(=O)NC4CC4)N(C(=O)[C@@H](NC(=O)NC(C)(C)C)C(C)(C)C)C3)nccc2c1` (stereo partly drawn) [Compound 11, 1-[2S-(3-tert-Butyl-ureido)-3,3-dimethyl-butyryl]-4R-(6-ethoxy-isoquinolin-1-yloxy)-pyrrolidine-2-carboxylic acid (2-cyclopropylcarbamoyl-1S-cyclopropylmethyl-2S-oxo-ethyl)-amide], for which the IC50 was less than 10 µM.

For the compound `CCC[C@H](NC(=O)[C@@H]1CC(Oc2nccc3cc(OCC)ccc23)CN1C(=O)[C@@H](NC(=O)NC(C)(C)C)C(C)(C)C)C(=O)C(=O)NC1CC1` (stereo partly drawn) [Compound 12, 1-[2S-(3-tert-Butyl-ureido)-3,3-dimethyl-butyryl]-4R-(6-ethoxy-isoquinolin-1-yloxy)-pyrrolidine-2S-carboxylic acid (1S-cyclopropylaminooxalyl-butyl)-amide], the IC50 is less than 10 µM.

In the case of `COc1ccc2c(OC3C[C@@H](C(=O)N[C@@H](CC4CC4)C(=O)C(=O)NC4CC4)N(C(=O)[C@@H](NC(=O)NC(C)(C)C)C(C)(C)C)C3)nccc2c1` (stereo partly drawn) [Compound 10, 1-[2S-(3-tert-Butyl-ureido)-3,3-dimethyl-butyryl]-4R-(6-methoxy-isoquinolin-1-yloxy)-pyrrolidine-2S-carboxylic acid (2-cyclopropylcarbamoyl-1S-cyclopropylmethyl-2-oxo-ethyl)-amide], the half-inhibitory concentration (IC50) is less than 10 µM.

With `CCC[C@H](NC(=O)[C@@H]1C[C@@H](Oc2ccc(Cl)cn2)CN1C(=O)[C@@H](NC(=O)NC(C)(C)C)C(C)(C)C)C(=O)C(=O)NC1CC1` [Compound 8, 1-[2-(3-tert-butylureido)-3,3-dimethyl-butyryl]-4-(5-chloro-pyridin-2-yloxy)-pyrrolidine-2-carboxylic acid (1-cyclopropylaminooxalyl-butyl)-amide], the IC50 was less than 10 µM.
